In paper PMC7871391, “The novel TRPA1 antagonist BI01305834 inhibits ovalbumin-induced bronchoconstriction in guinea pigs” (Respiratory Research, 2021):

What was measured:
[1] = test system: TRPA1; design: method as in PMID 17686976, PMID 18954467; details: TRPA1-mediated calcium flux ref 46, 47; cited from earlier work
[2] = test system: guinea-pig lung slices; assay: TRPA1 agonism in lung slices (airway narrowing, histamine release); details: data not shown
Protocol: Lung slices were used for OA and histamine induced airway narrowing studies. In order to do this, lung slices were placed in 1 ml medium and fixed with a plastic ring. After 30 min pre-treatment with the TRPA1 antagonist BI01305834 (0.01, 0.1, 1 or 10 µM) or the vehicle (10% cyclodextrin) OA (10^–5-10^2 µg.ml^−1) or histamine (10^–8-10^–2 M) dose–response curves were established. Using a microscope (Eclipse, TS100; Nikon) time-lapse images (1 frame per 2 s) of the lung slices were captured. The airway luminal area was quantified using image acquisition software (NIS-elements; Nikon) and expressed as percentage of basal area, as described previously.
Lung slices were used for OA-induced histamine determinations, with separate slices for each condition individually. BI01305834 and vehicle pre-treated lung slices were challenged with OA (10 µg.ml^−1) for 5 min. […] Histamine levels of original supernatant and homogenized lung slice supernatant were assessed by liquid chromatography in combination with isotope dilution tandem mass spectrometry (LC–MS/MS). […] Inter-assay imprecision (n = 20 days) was < 2.9% at three different levels (60, 986, 3873 nM, respectively) and limit of quantification was 3.0 nM. Histamine release was calculated as percentage of total histamine present in both supernatant and slice. […]

Row | Compound | IC50 [1] | induction of airway narrowing [2] | induction of histamine release [2]
1 | CC(C)c1ccc(NC(=O)Cn2cnc3c2c(=O)n(C)c(=O)n3C)cc1 [HC030031] | 6.2 to 7.5 µM |  | 
2 | C=CCN=C=S [AITC, allyl isothiocyanate] |  | unable to induce | unable to induce
